Data: patent publication US5821267A, “Amidino derivatives useful as nitric oxide synthase inhibitors” (priority 1996, dated 1998)

Columns and labels:
[1] = molecular target: T1, Mouse inducible nitric oxide synthase (miNOS) (Mus musculus, UniProt P29477); test: Citrulline Assay for Nitric Oxide Synthase, mouse inducible NOS; assay type: biochemical; settings: mouse iNOS; 30 μM L-arginine, 37° C., 15 minutes
T1 construct: was prepared from an extract of LPS-treated RAW 264.7 cells and partially purified by DEAE-Sepharose chromatography; endogenous in cells; host or cells: LPS-treated RAW 264.7 cells (extract, partially purified by DEAE-Sepharose)
Description: Nitric oxide synthase activity was measured by monitoring the conversion of [3H]-arginine to [3H]-citrulline. Mouse inducible nitric oxide synthase (miNOS) was prepared from an extract of LPS-treated RAW 264.7 cells and partially purified by DEAE-Sepharose chromatography. […] Enzyme and inhibitors were incubated at 37° C. for 15 minutes in a reaction volume of 100 μL with the following components added to start the reaction: 50 mM Tris (pH 7.6), 1 mg/ml bovine serum albumin, 1 mM DTT, 2 mM CaCl2, 10 μM FAD, 10 μM tetrahydrobiopterin, 30 μM L-arginine containing L-[2,3-3H]-arginine at 300 cpm/pmole and 1 mM NADPH. […] The reaction was terminated by addition of cold stop buffer containing 10 mM EGTA, 100 mM HEPES, pH 5.5 and 1 mM citrulline. [3H]-Citrulline was separated by chromatography on Dowex 50W X-8 cation exchange resin and radioactivity determined with a liquid scintillation counter.

[2] = system: intracellular iNOS in RAW 264.7 cells; test: Raw Cell Nitrite Assay; assay type: cell-based; settings: Mus musculus, RAW264.7, LPS-induced RAW 264.7 cells, 30 μM L-arginine, 1 h at 37° C.
Description: RAW 264.7 cells are plated to confluency on a 96-well tissue culture plate grown overnight (17 h) in the presence of LPS to induce NOS. A row of 3-6 wells were left untreated and served as controls for subtraction of nonspecific background. The media was removed from each well and the cells are washed twice with Krebs-Ringers-Hepes (25 mM, pH 7.4) with 2 mg/ml glucose. The cells are then placed on ice and incubated with 50 μL of buffer containing L-arginine (30 μM) +/- inhibitors for 1 h. The assay is initiated by warming the plate to 37° C. in a water bath for 1 h. Production of nitrite by intracellular iNOS is linear with time. To terminate the cellular assay, the plate of cells is placed on ice and the nitrite-containing buffer removed and analyzed for nitrite using a previously published fluorescent determination for nitrite. All values are the average of triplicate wells and are compared to a background-subtracted induced set of cells (100% value).

[3] = molecular target: T2, Rat brain constitutive nitric oxide synthase (rnNOS) (Rattus norvegicus, UniProt P29476); test: Citrulline Assay for Nitric Oxide Synthase, rat brain constitutive NOS; assay type: biochemical; settings: rat brain cNOS; 50 nM calmodulin, 30 μM L-arginine, 37° C., 15 minutes
T2 construct: an extract of rat cerebellum and partially purified by DEAE-Sepharose chromatography; from tissue; host or cells: rat cerebellum (extract, partially purified by DEAE-Sepharose)
Description: Nitric oxide synthase activity was measured by monitoring the conversion of [3H]-arginine to [3H]-citrulline. Mouse inducible nitric oxide synthase (miNOS) was prepared from an extract of LPS-treated RAW 264.7 cells and partially purified by DEAE-Sepharose chromatography. Rat brain constitutive nitric oxide synthase (rnNOS) was preparedfrom an extract of rat cerebellum and partially purified by DEAE-Sepharose chromatography. Enzyme and inhibitors were incubated at 37° C. for 15 minutes in a reaction volume of 100 μL with the following components added to start the reaction: 50 mM Tris (pH 7.6), 1 mg/ml bovine serum albumin, 1 mM DTT, 2 mM CaCl2, 10 μM FAD, 10 μM tetrahydrobiopterin, 30 μM L-arginine containing L-[2,3-3H]-arginine at 300 cpm/pmole and 1 mM NADPH. For constitutive NOS, 50 nM calmodulin was also added. The reaction was terminated by addition of cold stop buffer containing 10 mM EGTA, 100 mM HEPES, pH 5.5 and 1 mM citrulline. [3H]-Citrulline was separated by chromatography on Dowex 50W X-8 cation exchange resin and radioactivity determined with a liquid scintillation counter.

T1 sequence (P29477 whole entry): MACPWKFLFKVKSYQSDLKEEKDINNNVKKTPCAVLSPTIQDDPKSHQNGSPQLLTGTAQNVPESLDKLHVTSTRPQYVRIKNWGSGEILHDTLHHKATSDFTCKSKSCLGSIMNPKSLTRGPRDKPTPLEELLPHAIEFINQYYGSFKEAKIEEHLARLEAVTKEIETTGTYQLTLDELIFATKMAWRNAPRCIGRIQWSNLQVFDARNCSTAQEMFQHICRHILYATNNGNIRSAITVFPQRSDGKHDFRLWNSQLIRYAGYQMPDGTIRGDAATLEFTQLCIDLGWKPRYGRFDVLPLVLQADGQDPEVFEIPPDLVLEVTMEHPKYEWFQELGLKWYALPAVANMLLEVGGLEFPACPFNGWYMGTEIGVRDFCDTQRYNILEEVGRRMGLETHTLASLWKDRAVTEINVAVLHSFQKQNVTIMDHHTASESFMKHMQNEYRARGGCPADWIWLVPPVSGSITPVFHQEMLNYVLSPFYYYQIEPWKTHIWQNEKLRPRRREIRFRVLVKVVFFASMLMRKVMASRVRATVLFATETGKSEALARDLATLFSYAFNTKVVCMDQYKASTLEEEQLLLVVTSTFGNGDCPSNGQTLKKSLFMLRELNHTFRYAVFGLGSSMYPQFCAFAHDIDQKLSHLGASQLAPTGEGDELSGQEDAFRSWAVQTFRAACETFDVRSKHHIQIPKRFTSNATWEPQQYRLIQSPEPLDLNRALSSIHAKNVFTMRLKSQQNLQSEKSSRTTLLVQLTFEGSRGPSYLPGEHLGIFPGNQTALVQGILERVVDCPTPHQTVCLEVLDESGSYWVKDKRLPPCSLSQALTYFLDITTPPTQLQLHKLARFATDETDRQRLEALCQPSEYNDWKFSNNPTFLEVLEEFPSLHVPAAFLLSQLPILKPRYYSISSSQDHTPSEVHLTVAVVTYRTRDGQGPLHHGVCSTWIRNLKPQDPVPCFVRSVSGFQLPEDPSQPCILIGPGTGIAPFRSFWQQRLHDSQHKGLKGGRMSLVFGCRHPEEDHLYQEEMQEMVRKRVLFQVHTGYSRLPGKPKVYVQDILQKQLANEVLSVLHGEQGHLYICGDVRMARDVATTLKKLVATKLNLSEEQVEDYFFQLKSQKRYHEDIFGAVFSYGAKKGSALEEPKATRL

SMILES | IC50 [1] | IC50 [2] | IC50 [3]
N=C(N)C1CC1 [Example 2, Cyclopropylcarbamidine] | 2.3 µM | 46 µM | 10 µM
CC(C)C(=N)N [Example 3, Isopropylcarbamidine] | 27 µM |  | 31 µM
CCCC(=N)N [Example 4, 1-Propylcarbamidine] | 2 µM |  | 7.3 µM
CCC(=N)N [Example 5, Ethylcarbamidine] | 16 µM |  | 44 µM
N=C(N)c1cccs1 [Example 8, 2-Amidinothiophene] | 1 µM | 7 µM | 1.3 µM
N=C(N)c1ccco1 [Example 9, 2-Amidinofuran] | 3 µM | 158 µM | 3 µM
CSCC(=N)N [Example 11] | 2 µM | 60 µM | 7 µM
